Patent publication US10683272B2 (THE JOHNS HOPKINS UNIVERSITY, priority 2014, dated 2020)

Test system: PSMA+ PC-3 PIP and PSMA− PC-3 flu tumors
Assay: small animal PET-CT imaging
Format: in vivo, NOD/SCID mice
Settings: PET-CT
Experimental: Mice (n=3 for ^86Y-4 or ^86Y-6 and n=2 for ^86Y-5) were injected via the tail vein with 3.33-6.21 MBq (90-168 μCi) of radiotracer formulated in 100 μL of saline at pH ˜7. […] At different time points, anesthetized individual mice were placed in the prone position on the scanner gantry and secured with medical tape while the anesthesia flow rate was increased to 0.8 L/min. Images were reconstructed using the FORE/2D-OSEM method (two iterations, 16 subsets) and included correction for radioactive decay, scanner dead time, and scattered radiation. Partial volume correction (PVC) was not performed. After each PET scan, a CT scan was acquired for anatomic co-registration. To facilitate PET and CT image co-registration, a special animal bed was employed which fits both the PET and CT scanners. The animals were under anesthesia and immobilized when moving between scanners as well as during both scans. The reconstructed PET and CT images were then manually co-registered through rigid transformation, by aligning natural landmarks (such as the animal limbs and the bed contour) using the AMIDE software (from sourceforge.net/amide).
Dynamic, whole-body PET and CT images were acquired on an eXplore VISTA small-animal PET (GE Healthcare, Little Chalfont, Buckinghamshire, UK) and an X-SPECT small SPECT/CT system (Gamma Medica Ideas, Northridge, Calif.), respectively.

For `O=C([O-])CN1CCN(CC(=O)[O-])CCN(CC(=O)[O-])C(Cc2ccc(NC(=S)NCCCCNC(=O)CCCCCCC(=O)NCCCC[C@H](NC(=O)N[C@@H](CCC(=O)O)C(=O)O)C(=O)O)cc2)CN(CC(=O)[O-])CC1.[86Y+3]` (stereo partly shown) [^86Y-6], the “earliest time of clear delineation of PSMA+ PC-3 PIP tumor” value was 15 min.
